Reference: patent publication US7879880B2, “Substituted aniline derivatives useful as histamine H3 antagonists” (Schering Corporation, priority 2005, dated 2011)

Tests used:
[1] = target: T1, guinea pig brain H3 receptor (Cavia porcellus, UniProt Q9JI35); assay: H3-receptor binding assay, guinea pig brain membranes; conditions: [3H]R-α-methyl histamine or [3H]Nα-methyl histamine
T1 construct: The brain tissue was homogenized with a solution of 50 mM Tris, pH 7.5; from tissue; host or cells: guinea pig brain membranes
T1 sequence (Q9JI35 whole entry): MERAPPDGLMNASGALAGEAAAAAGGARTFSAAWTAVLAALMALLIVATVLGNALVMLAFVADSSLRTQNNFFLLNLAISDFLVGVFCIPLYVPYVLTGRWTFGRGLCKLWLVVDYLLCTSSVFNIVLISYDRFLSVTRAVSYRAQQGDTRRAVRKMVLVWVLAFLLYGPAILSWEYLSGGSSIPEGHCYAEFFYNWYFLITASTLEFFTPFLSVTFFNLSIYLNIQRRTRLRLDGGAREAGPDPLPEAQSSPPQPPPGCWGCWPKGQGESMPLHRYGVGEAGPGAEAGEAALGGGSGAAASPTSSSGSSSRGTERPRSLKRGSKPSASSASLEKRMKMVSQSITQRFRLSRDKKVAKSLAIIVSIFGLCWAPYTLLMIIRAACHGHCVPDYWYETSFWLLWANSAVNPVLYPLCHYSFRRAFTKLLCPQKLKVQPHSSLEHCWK
Description: (§1) The source of the H3 receptors in this experiment was guinea pig brain. Alternatively, the source of H3 receptors was recombinant human receptor, expressed in HEK-293 (human embryonic kidney) cells.
The animals weighed 400-600 g. The brain tissue was homogenized with a solution of 50 mM Tris, pH 7.5. The final concentration of tissue in the homogenization buffer was 10% w/v. The homogenates were centrifuged at 1,000×g for 10 min. in order to remove clumps of tissue and debris. The resulting supernatants were then centrifuged at 50,000×g for 20 min. in order to sediment the membranes, which were next washed three times in homogenization buffer (50,000×g for 20 min. each). The membranes were frozen and stored at −70° C. until needed.
All compounds to be tested were dissolved in DMSO and then diluted into the binding buffer (50 mM Tris, pH 7.5) such that the final concentration was 2 μg/ml with 0.1% DMSO. Membranes were then added (400 μg of protein, 5 μg in the case of recombinant human receptor) to the reaction tubes. The reaction was started by the addition of 3 nM [^3H]R-α-methyl histamine (8.8 Ci/mmol) or 3 nM [^3H]N^α-methyl histamine (80 Ci/mmol) and continued under incubation at 30° C. for 30 min. Bound ligand was separated from unbound ligand by filtration, and the amount of radioactive ligand bound to the membranes was quantitated by liquid scintillation spectrometry. […]

[2] = target: T2, recombinant human H3 receptor (Homo sapiens, UniProt Q9Y5N1); assay: H3-receptor binding assay, recombinant human receptor expressed in HEK-293 cells; conditions: [3H]R-α-methyl histamine or [3H]Nα-methyl histamine
T2 construct: expressed in transfected cells; host or cells: HEK-293 (human embryonic kidney) cells
T2 sequence (Q9Y5N1 whole entry): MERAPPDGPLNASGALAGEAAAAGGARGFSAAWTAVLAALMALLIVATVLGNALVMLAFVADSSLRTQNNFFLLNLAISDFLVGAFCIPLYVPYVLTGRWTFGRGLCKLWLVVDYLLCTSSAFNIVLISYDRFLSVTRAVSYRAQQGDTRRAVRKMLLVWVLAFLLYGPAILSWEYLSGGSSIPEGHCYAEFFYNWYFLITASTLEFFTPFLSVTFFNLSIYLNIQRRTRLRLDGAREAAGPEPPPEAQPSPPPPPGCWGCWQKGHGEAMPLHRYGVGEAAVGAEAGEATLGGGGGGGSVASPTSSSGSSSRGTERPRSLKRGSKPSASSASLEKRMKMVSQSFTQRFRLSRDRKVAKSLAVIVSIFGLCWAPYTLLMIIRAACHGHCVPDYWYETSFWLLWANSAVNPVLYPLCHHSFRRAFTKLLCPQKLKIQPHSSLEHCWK
Description: as §1
All compounds to be tested were dissolved in DMSO and then diluted into the binding buffer (50 mM Tris, pH 7.5) such that the final concentration was 2 μg/ml with 0.1% DMSO. Membranes were then added (400 μg of protein, 5 μg in the case of recombinant human receptor) to the reaction tubes. The reaction was started by the addition of 3 nM [^3H]R-α-methyl histamine (8.8 Ci/mmol) or 3 nM [^3H]N^α-methyl histamine (80 Ci/mmol) and continued under incubation at 30° C. for 30 min. Bound ligand was separated from unbound ligand by filtration, and the amount of radioactive ligand bound to the membranes was quantitated by liquid scintillation spectrometry. All incubations were performed in duplicate and the standard error was always less than 10%. Compounds that inhibited more than 70% of the specific binding of radioactive ligand to the receptor were serially diluted to determine a Ki (nM).

[3] = Effects on diet-induced obesity in mice (weight gain and food intake); type: in vivo; conditions: mice on high-fat diet, 10 mg/kg by gavage once daily for four days, vs vehicle control
Description: Lean mice (male, approx. 5 weeks of age, purchased from The Jackson Laboratory, Bar Harbor, Me.) were maintained in individual cages at 22° C. on a 12:12 hr light/dark cycle. The “treated” mice (N=12) were administered a Thiazole Derivative (10 mg/kg) by gavage once daily for four consecutive days. Control mice (N=12) were administered vehicle only, once daily for four days. Both control and treated mice were fed a high-fat diet from days 0 to 4 and body weight and food intake were monitored daily. The percent inhibition for weight gain and food intake was calculated by comparing the increase in weight gain and food intake in the treated mice to the increase in weight gain and food intake in the control mice.
Compound numbers correspond to the compound numbering set forth in the specification.

Ki [1] [nM]	Ki [2] [nM]	Structure (SMILES)	Food intake Inhibition (%) [3] [%]	Weight Gain Inhibition (%) [3] [%]
2		Cc1cccc(C)c1NC(=O)N1CCN(C(=O)c2ccc(Nc3ccncc3)cc2)CC1 [Compound 54A]		
	3	O=C(c1ccc(Nc2ccncc2)cc1)N1CCC(n2c(-c3ccccn3)nc3cccnc32)CC1 [Compound 59A]	1.1	21.0
		Nc1cc(Nc2ccc(C(=O)N3CCC(n4c(-c5ccccn5)nc5cccnc54)CC3)cc2)ccn1 [Compound 160A]	18.3	33.0
